“Also recorded” adds a separate entry of the source. Read-outs that look alike come from different tables or passages of the source.
Columns and labels:
[1] = tested on: E. coli W3110hns-205::Tn10; format: cell-based; details: 3 mM, L-broth containing tetracycline, 37° C.; for Growth inhibition: semi-quantitative estimate
Method: A single E. coli colony (W3110 hns-205::Tn10) was picked from an L-agar plate containing tetracycline (10 μg ml^−1) and inoculated into 10 ml L-broth. This was grown overnight in a shaking incubator at 37° C. 200 μl of overnight culture was inoculated into 20 ml L-broth in a 50 ml conical flask, and grown at 37° C. in a shaking water bath to an optical density at 600 nm (OD600) of between 0.2 and 0.3. Two ml of this culture was inoculated into 18 ml pre-warmed L-broth containing tetracycline (10 μg ml^−1) to which had been added an appropriate volume of indole, isoquinoline, indoline, tryptamine, quinoline, or pyrrole stock solution (0.5 M in ethanol), IAA stock solution (0.5 M in water), 3-β-indoleacrylic acid stock solution (0.125 M in ethanol) or 1-acetylindoline stock solution (0.25 M in ethanol) to give a final concentration of 3 mM.

W3110 rnc-14 = experiment: Indole-induced quiescence in an rnc mutant (FIG. 6); format: cell-based, E. coli; details: 2 mM indole
Method: For the experimentation for which results are shown in FIG. 6, a culture of W3110 rnc-14 was grown in L-broth at 37° C. to a density of OD600=0.15. The culture was divided into two (t=0) and indole (2 mM) was added to one of the sub-cultures. Growth of the cultures was measured over the following 27 hours. While the control culture eventually reached stationary phase at OD600=2, the indole-treated culture entered a non-growing state after approximately 7 hours and remained at a density of OD600=1 (approx.).

W3110 hns205 = experiment: Indole-induced quiescence of W3110 hns205 in broth culture (FIG. 2a, 2b, 3); format: cell-based, E. coli
Method: (§1) For the experimentation for which results are shown in FIG. 2a and FIG. 2b, W3110 and W3110hns-205 (Mukherjee et al., 2004) were cultured at 37° C. in tryptone water broth (Oxoid) supplemented with 0, 2 or 4 mM indole.
For the experimentation for which results are shown in FIG. 3a and FIG. 3b, W3110hns205 was cultured in L-broth at 30° C. (FIG. 3a) or 42° C. (FIG. 3b). At t=0 each culture was split into two and indole (final concentration 2 mM) was added to one part. […] The control cultures (no indole) continued to grow until they reached stationary phase.

E. coli BW25113 = experiment: Growth inhibition of E. coli BW25113 by indole in L-broth (FIG. 1); format: cell-based; details: 37° C.
Method: For the experimentation for which results are shown in FIG. 1, E. coli BW25113 (Datsenko & Wanner, 2000)was grown overnight at 37° C. in L-broth (Kennedy, 1971). The stationary phase culture was used to inoculate a series of L-broth cultures supplemented with indole (0-6 mM) and their growth was monitored over the next 7 hours.

[2] = tested on: W3110hns205 containing plasmid pCMT2bompAhGM-CSF; experiment: hGM-CSF expression in indole-treated cultures, ELISA of total cell lysates (FIG. 4); format: cell-based, E. coli; details: for hGM-CSF production: 42° C., L-broth
Method: For the experimentation for which results are shown in FIG. 4, W3110hns205 containing plasmid pCMT2bompAhGM-CSF^(see below) (which contains the coding sequence for the cytokine hGM-CSF fused to an ompA leader sequence, transcribed from promoter lambda PL under the control of the temperature sensitive repressor cI857) was grown in L-broth at 30° C. to an OD600 of 0.36, at which point the culture was transferred to 42° C. to induce cytokine expression. Simultaneously indole was added to the growth medium at final concentrations of 0, 2 or 4 mM (FIG. 4a).
Cytokine production was quantified by ELISA of total cell lysates and assay data were normalised for culture density (FIG. 4b). […] In the control culture (no indole), hGM-CSF increased in the first hour before declining.

E. coli W3110 = experiment: Growth of W3110 in tryptone water broth supplemented with indole (FIG. 2a); format: cell-based; details: 37° C.
Method: as §1

W3110hns-205 pcIts857 = experiment: Comparison of indole- and Rcd-induced quiescence (FIG. 7); format: cell-based, E. coli; details: 42° C., L-broth
Method: The experiment for which results are shown in FIG. 7 compared the growth kinetics of Rcd-induced and indole-induced quiescent cultures. Cultures of W3110hns-205 pcIts^857 (Remaut et al., 1983) transformed with either pRcd1 (Rcd expression plasmid; Mukherjee et al., 2004)) or pUCdeltalacZ (control plasmid; no Rcd) were grown in L-broth at 30° C. for 90 minutes, then 2×5 ml aliquots of each culture were transferred to 50 ml conical flasks, pre-warmed to 42° C. (t=0). The temperature shift induces Rcd expression in cultures containing plasmid pRcdl but not in cultures containing pUCdeltalacZ. For each pair of cultures, indole (final concentration 2 mM) was added to one of them. IPTG was added to all cultures so that the induction of chromosomal LacZ could be monitored. Culture density was monitored over the following 24 h.

E. coli gene mdtE = details: 2 mM indole; cited from earlier work
[3] = tested on: E. coli W3110hns-205::Tn10; format: cell-based; details: L-broth containing tetracycline
[4] = tested on: W3110hns-205 containing pCMT2blacZ; experiment: Growth and beta-galactosidase (LacZ) expression in indole-treated culture (FIG. 5); format: cell-based, E. coli; details: 2 mM indole, 42° C.
Method: For the experimentation for which results are shown in FIGS. 5a and 5b, W3110hns-205 containing pCMT2blacZ (a plasmid which contains the coding sequence for beta-galactosidase, transcribed from promoter lambda PL under the control of the temperature sensitive repressor cI857) was grown in L-broth at 30° C. to OD600=0.15. The culture was then divided into two and the temperature was increased to 42° C. to induce lacZ expression. Indole (2 mM) was added immediately to one subculture to induce a quiescent state, while the other was an indole-free control. Beta-galactosidase activities were measured for 24 hours after the temperature shift.

## O=C(O)Cc1c[nH]c2ccccc12 [IAA, indole-3-acetic acid]
[1]
  effect on growth (in words): slight stimulation of growth
  Growth inhibition: −^b
[1]; listed as indole acetic acid
  effect on growth (in words): not observed to have a significant effect on growth

## pyrrole
[1]
  effect on growth (in words): no observed inhibitory effect
  Growth inhibition: −
[1]; listed as Pyrrole
  effect on growth (in words): not observed to have a significant effect on growth

## c1ccc2[nH]ccc2c1 [indole]
W3110 rnc-14
  induction of quiescence: induce quiescence; also recorded: enters quiescence
W3110 rnc-14; L-broth, 37° C.
  culture density OD600 in non-growing state: ~1
  time to enter a non-growing state: approximately 7 hours
W3110 hns205; 2 mM indole, L-broth
  effect on growth: enter a quiescent state
W3110 hns205; 2 mM indole, L-broth, 30° C. or 42° C.
  induction of quiescence: induce quiescence; also recorded: entered the quiescent state with similar kinetics at both temperatures
W3110 hns205; 2 mM indole, at 30° C., 37° C. and 42° C.
  persistence of the quiescent state: at least 24 hours
W3110 hns205; 4 mM indole, L-broth
  effect on growth: complete growth inhibition
W3110 hns205; 4 mM indole, tryptone water broth, 37° C.
  effect on growth: almost complete inhibition of growth
W3110 hns205; shake-flask culture
  appropriate final concentration of indole to induce quiescence: 2 mM
E. coli BW25113; 1 mM indole
  effect on growth: growth inhibition was not evident; also recorded: no effect upon growth
E. coli BW25113; 2 or 3 mM indole
  effect on growth: partial inhibition; also recorded: slowing of the growth rate
E. coli BW25113; 4, 5 or 6 mM indole
  effect on growth: Growth inhibition was severe; also recorded: almost complete inhibition of growth
[2]; 2 mM indole, quiescent culture
  hGM-CSF production: increased rapidly for the first hour
[2]; 2 mM indole, normalised for culture density
  peak hGM-CSF concentration of control culture (no indole) relative to quiescent culture: less than half
[2]; 4 mM indole
  hGM-CSF production: produced no hGM-CSF
E. coli W3110; 2 mM indole
  effect on growth: partial growth inhibition; also recorded: reduced growth rate
E. coli W3110; 4 mM indole
  effect on growth: inhibited growth severely; also recorded: completely inhibited growth
[1]
  Growth inhibition: +++
W3110hns-205 pcIts857; 2 mM indole plus Rcd expression (pRcd1)
  induction of quiescence: entered a quiescent state but more rapidly and reached a lower final density
W3110hns-205 pcIts857; 2 mM indole, no Rcd
  induction of quiescence: enter a quiescent state with similar growth kinetics; also recorded: entered a quiescent state
E. coli gene mdtE
  elevation of expression: 22 fold
[3]
  minimum concentration which causes immediate growth inhibition: 3 mM
[4]; L-broth
  final OD600: 0.78
[4]; after 24 h
  beta-galactosidase activity: 27,000 MU

## CC(=O)N1CCc2ccccc21 [1-acetylindoline]
[1]
  effect on growth (in words): substantial growth inhibition, but less severe than that shown by indole; also recorded: significant inhibitory effects

## O=C(O)/C=C/c1c[nH]c2ccccc12 [3-β-indoleacrylic acid]
[1]
  effect on growth (in words): very similar effects to indole; also recorded: significant inhibitory effects
  Growth inhibition: +++

## c1ccc2ncccc2c1 [quinoline]
[1]
  effect on growth (in words): significant inhibitory effects
[1]; listed as Quinoline
  effect on growth (in words): some inhibition of growth but their effect was less severe than indole; also recorded: substantial growth inhibition, but less severe than that shown by indole

## c1ccc2cnccc2c1 [isoquinoline]
[1]
  effect on growth (in words): very similar effects to indole; also recorded: significant inhibitory effects
  Growth inhibition: +++
[1]; listed as Isoquinoline
  effect on growth (in words): very similar effects to indole

## NCCc1c[nH]c2ccccc12 [tryptamine]
[1]
  effect on growth (in words): some inhibition of growth but their effect was less severe than indole; also recorded: slight growth inhibition

## c1ccc2c(c1)CCN2 [indoline]
[1]
  effect on growth (in words): some inhibition of growth but their effect was less severe than indole
[1]; listed as Indoline
  effect on growth (in words): slight growth inhibition
